In patent US4497816A, “7-(4-Pyridyl)-1,8-naphthyridine derivatives and their antibacterial compositions” (Dainippon Pharmaceutical Co., Ltd., priority 1982, dated 1985):
Values after ≈ are worked out from the molar mass of the structure shown.

Legend:
[1] = test system: Staphylococcus aureus No. 50774; test: In vivo efficacy against the systemic infections in mice (Staphylococcus aureus); parameters: species or system mice (male ddY); conditions: 336 h; Staphylococcus aureus No. 50774, intravenous infection; oral, twice, about 5 minutes and 6 hours after infection; observed 14 days
Protocol: (§1) Compounds 1, A and NA were each suspended in a 0.2%
(§2) aqueous solution of sodium carboxymethylcellulose.
(§3) Each of the solutions was orally administered to
(§4) mice infected with each of the test organisms under
(§5) the conditions described below, and the median
(§6) effective dose (ED50) was calculated in accordance
(§7) with the Behrens-Kaerber method [Arch. Exp. Path.
(§8) Experimental conditions:
(§9) Mice: Male mice (ddY) weighing about 20 g
Staphylococcus aureus No. 50774
Intravenous infection with about 5 × 10^8
cells per mouse suspended in saline
Twice, about 5 minutes and 6 hours after
Staphylococcus aureus No. 50774-for 14 days

[2] = test system: Pseudomonas aeruginosa No. 12; test: In vivo efficacy against the systemic infections in mice (Pseudomonas aeruginosa); parameters: species or system mice (male ddY); conditions: Pseudomonas aeruginosa No. 12, intraperitoneal infection; oral, twice, about 5 minutes and 6 hours after infection
Protocol: as §1, §2, §3, §4, §5, §6, §7, §8, §9
Pseudomonas aeruginosa No. 12
Intraperitoneal infection with about 5 × 10^3
(§10) cells per mouse suspended in trypto-soy
(§11) Twice, about 5 minutes and 6 hours after […]

Escherichia coli P-5101 [3] = test: In vivo efficacy against the systemic infections in mice (Escherichia coli); parameters: species or system mice (male ddY); conditions: P5101; Escherichia coli P-5101, intraperitoneal infection; oral, twice, about 5 minutes and 6 hours after infection
Protocol: as §1, §2, §3, §4, §5, §6, §7, §8, §9
Escherichia coli P-5101
Intraperitoneal infection with about 9 × 10^6
as §10, §11

Escherichia coli P-5101 [4] = test: In vitro antibacterial activity (MIC), agar dilution method; format: cell-based; conditions: P5101
Protocol: (§12) *^3 In vitro antibacterial activity
(§13) The minimum inhibitory concentrations (MIC:
(§14) μg/ml) shown in Table 1 were determined according
(§15) to the agar dilution method recommended by Japan
(§16) Society of Chemotherpy (1980)

[5] = test system: Staphylococcus aureus No. 50774; test: as above; format: cell-based
Protocol: as §12, §13, §14, §15, §16

[6] = test system: Pseudomonas aeruginosa No. 12; test: as above; format: cell-based
Protocol: as §12, §13, §14, §15, §16

[7] = Acute oral toxicity in mice; conditions: mouse, in vivo, female mice (ddY), deaths counted after 7 days
Protocol: *^5 Acute oral toxicity in mice
A suspension containing compound 1 in various
concentrations was orally given to female mice
(ddY) at a volume of 0.1 ml per 10 g of body weight.
The number of dead mice was counted after 7 days,
and the value of median lethal dose (LD50) was
calculated in accordance with the Behrens-Kaerber

SMILES | ED50 [1] [mg/kg] | ED50 [2] [mg/kg] | ED50 (Escherichia coli P-5101 [3]) [mg/kg] | MIC (Escherichia coli P-5101 [4]) [µg/mL] | MIC [5] [µg/mL] | MIC [6] [µg/mL] | LD50 at 168 h [7] [mg/kg]
CCn1cc(C(=O)O)c(=O)c2ccc(-c3ccncc3)nc21 [Compound A, 1-ethyl-1,4-dihydro-4-oxo-7-(4-pyridyl)-1,8-naphthyridine-3-carboxylic acid] | 23.7 | > 100 | 21 | 0.78 (≈ 2.64 µM) | 1.56 (≈ 5.28 µM) | 12.5 (≈ 42.3 µM) | –
CCn1cc(C(=O)O)c(=O)c2ccc(C)nc21 [NA, 1-ethyl-1,4-dihydro-7-methyl-4-oxo-1,8-naphthyridine-3-carboxylic acid] | 767 | 267 | – | 3.13 (≈ 13.5 µM) | 50 (≈ 215 µM) | 200 (≈ 861 µM) | –
CCn1cc(C(=O)O)c(=O)c2cc(F)c(-c3ccncc3)nc21 [Compound 1, 1-Ethyl-6-fluoro-1,4-dihydro-4-oxo-7-(4-pyridyl)-1,8-naphthyridine-3-carboxylic acid] | 2.84 | 12.2 | 3.1 | 0.2 (≈ 0.638 µM) | 0.2 (≈ 0.638 µM) | 3.13 (≈ 9.99 µM) | > 2000
